Measured values taken from ChEMBL document CHEMBL4017441, “Mitigating the inhibition of human bile salt export pump by drugs: opportunities provided by physicochemical property modulation, in silico modeling, and structural modification” (Drug Metab Dispos, 2012).
*1 amine or outer side, *2 acyl side, *3 side chain or, on linkers, in order; H or OH if unused. Where a SMILES comes first, the peptide text is derived from it. Bridges are numbered along the chain shown (N, C = ends). [ ]: non-standard residue; d: D form. The star is where a group is joined. ξ: configuration not given here. ΔAla(Z-3-ureido) = NC(=O)N/C=C(\N)C(=O)O; X1 = N=C1NCCC(C(N[*:1])C(=O)[*:2])N1; ξβ3hOrn = NCCCC(N)CC(=O)*; Dap = NC[CH](N)C(=O)O

These compounds were tested against T1, Bile salt export pump (Rattus norvegicus, UniProt O70127) (assay: Inhibition of BSEP in Sprague-Dawley rat canalicular membrane vesicles assessed as reduction in ATP-dependent [3H]-taurocholate uptake).
T1 sequence (O70127 whole entry): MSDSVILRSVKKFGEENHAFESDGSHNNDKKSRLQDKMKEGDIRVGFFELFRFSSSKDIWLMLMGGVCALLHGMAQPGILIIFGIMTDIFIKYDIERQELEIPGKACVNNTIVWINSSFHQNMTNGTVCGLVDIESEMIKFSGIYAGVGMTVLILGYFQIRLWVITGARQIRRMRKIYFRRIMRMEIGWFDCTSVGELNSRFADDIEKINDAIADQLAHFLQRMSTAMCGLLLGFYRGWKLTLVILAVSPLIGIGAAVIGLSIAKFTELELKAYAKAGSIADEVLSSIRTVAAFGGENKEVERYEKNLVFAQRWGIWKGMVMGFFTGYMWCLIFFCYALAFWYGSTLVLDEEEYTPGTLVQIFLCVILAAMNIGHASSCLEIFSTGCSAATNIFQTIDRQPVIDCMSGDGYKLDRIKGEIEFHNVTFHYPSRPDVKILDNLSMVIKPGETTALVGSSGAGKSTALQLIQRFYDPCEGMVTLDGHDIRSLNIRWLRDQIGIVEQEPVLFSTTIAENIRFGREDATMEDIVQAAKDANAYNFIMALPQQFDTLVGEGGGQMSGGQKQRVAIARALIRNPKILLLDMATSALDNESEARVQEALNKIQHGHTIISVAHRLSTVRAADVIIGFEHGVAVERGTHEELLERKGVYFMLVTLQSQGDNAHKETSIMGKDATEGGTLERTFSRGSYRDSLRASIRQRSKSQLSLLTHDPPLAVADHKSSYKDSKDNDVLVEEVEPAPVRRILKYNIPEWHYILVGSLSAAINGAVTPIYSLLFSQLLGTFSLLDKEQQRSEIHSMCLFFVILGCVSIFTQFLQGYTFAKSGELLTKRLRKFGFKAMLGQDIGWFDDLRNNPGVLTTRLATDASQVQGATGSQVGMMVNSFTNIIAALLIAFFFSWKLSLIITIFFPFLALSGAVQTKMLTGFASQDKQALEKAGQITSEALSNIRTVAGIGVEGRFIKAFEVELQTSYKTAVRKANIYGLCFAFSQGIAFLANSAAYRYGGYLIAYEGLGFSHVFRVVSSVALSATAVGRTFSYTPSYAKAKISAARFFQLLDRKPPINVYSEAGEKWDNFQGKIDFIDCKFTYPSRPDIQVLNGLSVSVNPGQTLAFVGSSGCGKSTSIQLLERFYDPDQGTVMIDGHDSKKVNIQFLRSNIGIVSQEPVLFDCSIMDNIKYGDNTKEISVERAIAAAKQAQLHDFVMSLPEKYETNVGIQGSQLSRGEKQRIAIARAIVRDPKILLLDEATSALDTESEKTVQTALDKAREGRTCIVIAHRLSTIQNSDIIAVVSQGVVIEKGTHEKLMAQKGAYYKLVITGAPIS
Assay type: ADME

Q: For `COc1ccc(CCN(C)CCCC(C#N)(c2ccc(OC)c(OC)c2)C(C)C)cc1OC` (centres undefined), which Ki is on record?
A: Its Ki is 92.5 µM.

These compounds were tested against Bile salt export pump (Homo sapiens, UniProt O95342).
Assay type: ADME

Q: For `CCCCCC(C)(O)/C=C/[C@@H]1[C@@H](C/C=C\CCCC(=O)O)[C@@H](O)C[C@H]1O` (some centres undefined), which IC50 is on record?
A: Its IC50 is 329 µM.

Q: How did the IC50 turn out when `CCCCc1cc2ccccc2c(OCCN(C)C)n1` [DIMETHISOQUIN] was run?
A: The IC50 was 68.7 µM.

Q: For `Cc1ccc(OC(C)(C)[C@H]2OC[C@@H](C/C=C\CCC(=O)O)[C@@H](c3cccnc3)O2)c(C#N)c1`, which IC50 is on record?
A: The IC50 was < 10 µM.

Q: `NS(=O)(=O)c1cc(C(=O)O)cc(N2CCCC2)c1Oc1ccccc1` [PIRETANIDE] was tested. Which IC50 did it give?
A: Its IC50 is > 791 µM.

Q: How did the IC50 turn out when `CN1CCC(=C2c3ccccc3CC(=O)c3sccc32)CC1` [KETOTIFEN] was run?
A: Its IC50 is > 429 µM.

Q: With `CC(=O)NC[C@H]1CN(c2ccc(-n3cnc(Br)c3)c(F)c2)C(=O)O1` as the compound, how does the IC50 read?
A: Its IC50 is 349 µM.

Q: How did the IC50 turn out when `CCN(CC)CCNC(=O)c1c(C)[nH]c(/C=C2\C(=O)Nc3ccc(F)cc32)c1C` [SUNITINIB] was run?
A: The IC50 was 45.8 µM.

Q: With `CCN1CCCC1CNC(=O)c1cc(S(N)(=O)=O)ccc1OC` (centres undefined) [SULPIRIDE] as the compound, how does the IC50 read?
A: The IC50 was 276 µM.

Q: With `Cc1scc2c1N(C(=O)CN1CCN(C)CC1)c1ccccc1NC2=O` [TELENZEPINE] as the compound, how does the IC50 read?
A: The IC50 was 315 µM.

Q: How did the IC50 turn out when `N=C1NCCC(C2NC(=O)/C(=C/NC(N)=O)NC(=O)C(CNC(=O)CC(N)CCCN)NC(=O)C(CO)NC(=O)C(N)CNC2=O)N1` (stereo not drawn) (H-[Dap]S[Dap](ξβ3hOrn)[ΔAla(Z-3-ureido)][X1]; lactam 1-C; configuration not given here) was run?
A: Its IC50 is > 1000 µM.

Q: With `CC(=O)NC[C@H]1CN(c2ccc(N3CCOCC3)c(F)c2)C(=O)O1` [LINEZOLID] as the compound, how does the IC50 read?
A: The IC50 was > 1000 µM.

Q: Which IC50 does the source give for `NS(=O)(=O)c1cc(Cl)c(Cl)c(S(N)(=O)=O)c1` [DICHLORPHENAMIDE] here?
A: The IC50 was > 919 µM.

Q: With `CN(C)CCOC(c1ccc(Cl)cc1)c1ccccn1` (centres undefined) [CARBINOXAMINE] as the compound, how does the IC50 read?
A: The IC50 was > 1000 µM.

Q: `COC(=O)C1=CCCN(C)C1` [ARECOLINE] was tested. Which IC50 did it give?
A: Its IC50 is > 1000 µM.

Q: Which IC50 does the source give for `CN(Cc1cc(Br)cc(Br)c1N)C1CCCCC1` [BROMHEXINE] here?
A: The IC50 was 20.3 µM.

Q: How did the IC50 turn out when `Cc1cc(O)cc(C)c1Cl` [CHLOROXYLENOL] was run?
A: The IC50 was 130 µM.

Q: For `Cc1ccc(NC(=O)c2cccc3c2oc2ccccc23)cc1NC(=O)c1cccc(OC2CCN(C(C)C)CC2)c1`, which IC50 is on record?
A: The IC50 was < 10 µM.

Q: With `O=c1ccc2ccccc2o1` [COUMARIN] as the compound, how does the IC50 read?
A: The IC50 was > 1000 µM.

Q: `CN(C)CCCN1c2ccccc2Sc2ccc(C(F)(F)F)cc21` [TRIFLUPROMAZINE] was tested. Which IC50 did it give?
A: Its IC50 is 39 µM.

Q: How did the IC50 turn out when `COc1ncnc(NS(=O)(=O)c2ccc(N)cc2)c1OC` [SULFADOXINE] was run?
A: The IC50 was > 1000 µM.

Q: Which IC50 does the source give for `CCCCOc1cc(C(=O)NCCN(CC)CC)c2ccccc2n1` [DIBUCAINE] here?
A: The IC50 was 41.7 µM.

Q: Which IC50 does the source give for `CC(C)NCC(O)COc1ccc(CCOCC2CC2)cc1` (centres undefined) [BETAXOLOL] here?
A: Its IC50 is > 1000 µM.

Q: For `CC(=O)Oc1ccc(C(c2ccc(OC(C)=O)cc2)c2ccccn2)cc1` [BISACODYL], which IC50 is on record?
A: The IC50 was 56.4 µM.

Q: `Cc1ccc(CCCN[C@H](C)CO)cc1C(=O)NCC12CC3CC(CC(C3)C1)C2` was tested. Which IC50 did it give?
A: The IC50 was 65.6 µM.

Q: How did the IC50 turn out when `CC(C)(C)c1cc(C(C)(C)C)c2oc(C(=O)O)cc(=O)c2c1` [TERBUCROMIL] was run?
A: The IC50 was < 10 µM.

Q: How did the IC50 turn out when `O=C1CC2(CCCC2)CC(=O)N1CCCCN1CCN(c2ncccn2)CC1` [BUSPIRONE] was run?
A: Its IC50 is 59.6 µM.

Q: Which IC50 does the source give for `CCCc1c(OCCCCc2nnn[nH]2)ccc(C(C)=O)c1O` [TOMELUKAST] here?
A: Its IC50 is < 10.7 µM.

Q: For `Cc1ccc(C(=O)c2cc(O)c(O)c([N+](=O)[O-])c2)cc1` [TOLCAPONE], which IC50 is on record?
A: The IC50 was < 33.9 µM.

Q: `COc1ccc(OC)c(C(O)C(C)N)c1` (centres undefined) [METHOXAMINE] was tested. Which IC50 did it give?
A: The IC50 was > 1000 µM.

Q: `Cc1cccc(N(C)C(=S)Oc2ccc3ccccc3c2)c1` [TOLNAFTATE] was tested. Which IC50 did it give?
A: Its IC50 is < 10.3 µM.

Q: For `O=CN(O)C(CCc1cccnc1)CS(=O)(=O)N1CCC(Oc2ccc(Cl)cn2)CC1` (centres undefined), which IC50 is on record?
A: Its IC50 is < 10 µM.

Q: For `CC1=NS(=O)(=O)c2cc(Cl)ccc2N1` [DIAZOXIDE], which IC50 is on record?
A: The IC50 was > 1000 µM.

Q: Which IC50 does the source give for `Cc1ccnc2c1NC(=O)c1cccnc1N2C1CC1` [NEVIRAPINE] here?
A: The IC50 was 295 µM.

Q: How did the IC50 turn out when `O=C(O)c1cc2c(OCCCO)cccc2n1Cc1ccc(Cl)c(Cl)c1` was run?
A: The IC50 was < 14 µM.

Q: How did the IC50 turn out when `COC(=O)[C@H](Cc1ccccc1)NC(=O)[C@@H](N)CC(=O)O` was run?
A: The IC50 was > 1000 µM.

Q: With `NNCCc1ccccc1` [PHENELZINE] as the compound, how does the IC50 read?
A: Its IC50 is > 897 µM.

Q: How did the IC50 turn out when `CC(=O)NCCCCCCNC(C)=O` [HEXAMETHYLENEBISACETAMIDE] was run?
A: The IC50 was > 1000 µM.

Q: `CCCC(=O)OCOC(=O)C1=C(C)NC(C)=C(C(=O)OC)C1c1cccc(Cl)c1Cl` (centres undefined) [CLEVIDIPINE] was tested. Which IC50 did it give?
A: Its IC50 is 36.4 µM.

Q: Which IC50 does the source give for `Nc1nc2ccc(OC(F)(F)F)cc2s1` [RILUZOLE] here?
A: The IC50 was 139 µM.

Q: `Nc1ccc(CN2C(=O)C(Nc3ccc(N4CCOCC4)cc3)=C(c3ccccc3)C2=O)cn1` was tested. Which IC50 did it give?
A: The IC50 was < 10 µM.

Q: How did the IC50 turn out when `CCOC(=O)[C@H](CCc1ccccc1)N[C@@H](C)C(=O)N1N=C(C(C)(C)C)S[C@H]1C(=O)O` [UTIBAPRIL] was run?
A: Its IC50 is < 13.5 µM.

Q: For `COc1cc(NC(C)CCCN)c2ncccc2c1` (centres undefined) [PRIMAQUINE], which IC50 is on record?
A: The IC50 was 53.1 µM.

Q: Which IC50 does the source give for `Cc1ccc(/C(=C\CN2CCCC2)c2ccccn2)cc1` [TRIPROLIDINE] here?
A: The IC50 was 291 µM.

Q: Which IC50 does the source give for `CC(COc1ccccc1)NC(C)C(O)c1ccc(O)cc1` (centres undefined) [ISOXSUPRINE] here?
A: Its IC50 is 573 µM.

Q: `CN1[C@@H]2C[C@@H](OC(=O)[C@H](CO)c3ccccc3)C[C@H]1[C@@H]1O[C@@H]12` [SCOPOLAMINE] was tested. Which IC50 did it give?
A: The IC50 was > 1000 µM.

Q: With `COc1cc(NS(=O)(=O)c2ccc(N)cc2)nc(OC)n1` [SULFADIMETHOXINE] as the compound, how does the IC50 read?
A: Its IC50 is > 1000 µM.

Q: `CC(=O)Nc1c(I)c(C(=O)N[C@H]2C(O)O[C@H](CO)[C@@H](O)[C@@H]2O)c(I)c(N(C)C(C)=O)c1I` (some centres undefined) [METRIZAMIDE] was tested. Which IC50 did it give?
A: Its IC50 is > 1000 µM.
